Results as given in patent US20110311601A1, “ANTIMICROBIAL MEDICAL DEVICES” (priority 2010, published 2011).
Where no end group is shown, it is not given here.

Assays:
Assay in all cases: micro-dilution assay (MBC, LD90)
Assay type in all cases: cell-based
[1] = test system: Streptococcus pneumoniae ATCC 33400
Description: (§1) The anti-bacterial activity of hβD2 was tested by a micro-dilution assay. Bacteria and fungi were streaked from a glycerol stock onto a Brain Heart Infusion (BHI) agar plate (3.7% w/v BHI Bouillon, 1.5% w/v Agar), grown overnight at 37° C. and 30° C., respectively and subsequently used to inoculate 40 ml of 3.7% w/v BHI Bouillon without any antibiotics in 100 ml flasks. Fresh cells were harvested by centrifugation at 16000 rpm for 10 min and washed twice with 10 mM sodium phosphate buffer, pH 7.2. The optical density was adjusted to 10^4 cells/ml. For anti-bacterial testing hβD2 was incubated in one well of a microtiter plate containing 100 μl of the bacterial suspension. Therefore, ten microlitres of hβD2 solution with a range of final concentrations tested from 0.0125 up to and including 100 mg/l was added to the bacterial suspension and incubated at 37° C. and 30° C., respectively for 2 h before colony forming units were determined. Colony forming units (CFU) were determined after plating 100 μl of a 1:100 dilution of the bacterial suspension on petri dishes with BHI medium and incubating them overnight at 37° C. For every group of the hβD2 added samples and the controls, 5 independent anti-bacterial assays were performed. A control (NC) of bacterial growth was examined for every independent assay. The number of CFU on the control (consisting of a single petri dish) was set to 0% bactericidal activity. The reduction in the CFU resulting from the anti-bacterial activity of hβD2 was related to the absolute CFU of the control within every independent assay. This value, given as a percentage of the bacterial “killing” activity, was used to describe the antibacterial activity. This kind of normalisation of the antibacterial data was performed for every experimental group.
(§2) The antibacterial activity of hβD2 were given either as minimum bactericidal concentration (MBC), i.e., the minimum concentration of hβD2 in μg/ml which is required to kill 99.9% of the bacteria or fungi or as lethal dose (LD90), i.e., the concentration of hβD2 in μg/ml which is lethal for 90% of bacteria or fungi.

[2] = test system: Pseudomonas aeruginosa ATCC 10145
Description: as §1, §2

[3] = test system: Proteus vulgaris Mero 103/067 (wild-type)
Description: as §1, §2

[4] = test system: Enterococcus faecium (VRE) W 354 (wild-type)
Description: as §1, §2

[5] = test system: Serratia marcescens Mero 103/013 (wild-type)
Description: as §1, §2

[6] = test system: Serratia marcescens Mero 041/145 (wild-type)
Description: as §1, §2

E. coli ATCC 35218 = test system: E. coli ATCC 35218
Description: as §1, §2

[7] = test system: Acinetobacter calcoaceticus ATCC 23055
Description: as §1, §2

[8] = test system: Citrobacter freundii NCTC 9750
Description: as §1, §2

[9] = test system: Acinetobacter haemolyticus ATCC 17906
Description: as §1, §2

[10] = test system: Acinetobacter johnsonii ATCC 17909
Description: as §1, §2

[11] = test system: Saccharomyces cerevisiae ATCC 9763
Description: as §1, §2

[12] = test system: Helicobacter pylori ATCC 49503
Description: as §1, §2

[13] = test system: Acinetobacter Genosp. 10 ATCC 17924
Description: as §1, §2

[14] = test system: Candida albicans C.a 46 (wild-type)
Description: as §1, §2

[15] = test system: Enterococcus faecalis ATCC 51299 VRE
Description: as §1, §2

[16] = test system: Proteus mirabilis ATCC 9240
Description: as §1, §2

[17] = test system: Acinetobacter junii ATCC 17908
Description: as §1, §2

[18] = test system: Acinetobacter Genosp. 11 ATCC 11171
Description: as §1, §2

[19] = test system: Candida albicans C.a 14 (wild-type)
Description: as §1, §2

[20] = test system: Salmonella typhimurium ATCC 13311
Description: as §1, §2

[21] = test system: Proteus mirabilis (ESBL 8) (wild-type)
Description: as §1, §2

[22] = test system: Enterobacter cloacae Va 12270/03 (wild-type)
Description: as §1, §2

[23] = test system: Klebsiella pneumoniae (ESBL) CF 7 (wild-type)
Description: as §1, §2

[24] = test system: Brevundimonas diminuta ATCC 11568
Description: as §1, §2

[25] = test system: Burkholderia cepacia ATCC 25416
Description: as §1, §2

## human β-defensin-2 (GIGDPVTCLKSGAICHPVFCPRRYKQIGTCGLPGTKCCKKP; ends and bridges not checked; cysteine pairing not given here) [hβD2, recombinant hβD2]
[1]
  LD 90 = μg/ml 90% killing: 25 µg/mL
  MBC = μg/ml 99.9% killing: 50 µg/mL
[2]
  LD 90 = μg/ml 90% killing: 6.25 µg/mL
  MBC = μg/ml 99.9% killing: 12.5 µg/mL
[3]
  LD 90 = μg/ml 90% killing: 100 µg/mL
  MBC = μg/ml 99.9% killing: >100 µg/mL
[4]
  LD 90 = μg/ml 90% killing: 50 µg/mL
  MBC = μg/ml 99.9% killing: 100 µg/mL
[5]
  LD 90 = μg/ml 90% killing: 100 µg/mL
  MBC = μg/ml 99.9% killing: >100 µg/mL
[6]
  LD 90 = μg/ml 90% killing: 25 µg/mL
  MBC = μg/ml 99.9% killing: 100 µg/mL
E. coli ATCC 35218
  LD 90 = μg/ml 90% killing: 3.125 µg/mL
  MBC = μg/ml 99.9% killing: 6.25 µg/mL
[7]
  LD 90 = μg/ml 90% killing: 0.39 µg/mL
  MBC = μg/ml 99.9% killing: 0.78 µg/mL
[8]
  LD 90 = μg/ml 90% killing: 12.5 µg/mL
  MBC = μg/ml 99.9% killing: 50 µg/mL
[9]
  LD 90 = μg/ml 90% killing: 0.39 µg/mL
  MBC = μg/ml 99.9% killing: 1.56 µg/mL
[10]
  LD 90 = μg/ml 90% killing: 0.39 µg/mL
  MBC = μg/ml 99.9% killing: 1.56 µg/mL
[11]
  LD 90 = μg/ml 90% killing: 3.125 µg/mL
  MBC = μg/ml 99.9% killing: 25 µg/mL
[12]
  LD 90 = μg/ml 90% killing: 12.5 µg/mL
  MBC = μg/ml 99.9% killing: 50 µg/mL
[13]
  LD 90 = μg/ml 90% killing: 0.39 µg/mL
  MBC = μg/ml 99.9% killing: 1.56 µg/mL
[14]
  LD 90 = μg/ml 90% killing: 6.25 µg/mL
  MBC = μg/ml 99.9% killing: 25 µg/mL
[15]
  LD 90 = μg/ml 90% killing: 50 µg/mL
  MBC = μg/ml 99.9% killing: 100 µg/mL
[16]
  LD 90 = μg/ml 90% killing: 100 µg/mL
  MBC = μg/ml 99.9% killing: >100 µg/mL
[17]
  LD 90 = μg/ml 90% killing: 3.125 µg/mL
  MBC = μg/ml 99.9% killing: 12.5 µg/mL
[18]
  LD 90 = μg/ml 90% killing: 0.39 µg/mL
  MBC = μg/ml 99.9% killing: 3.125 µg/mL
[19]
  LD 90 = μg/ml 90% killing: 12.5 µg/mL
  MBC = μg/ml 99.9% killing: 25 µg/mL
[20]
  LD 90 = μg/ml 90% killing: 1.56 µg/mL
  MBC = μg/ml 99.9% killing: 6.25 µg/mL
[21]
  LD 90 = μg/ml 90% killing: 100 µg/mL
  MBC = μg/ml 99.9% killing: >100 µg/mL
[22]
  LD 90 = μg/ml 90% killing: 6.25 µg/mL
  MBC = μg/ml 99.9% killing: 12.5 µg/mL
[23]
  LD 90 = μg/ml 90% killing: 25 µg/mL
  MBC = μg/ml 99.9% killing: 50 µg/mL
[24]
  LD 90 = μg/ml 90% killing: 6.25 µg/mL
  MBC = μg/ml 99.9% killing: 12.5 µg/mL
[25]
  LD 90 = μg/ml 90% killing: 100 µg/mL
  MBC = μg/ml 99.9% killing: >100 µg/mL
